This is an account of results in patent publication US20250221966A1, “RXFP1 AGONISTS” (BRISTOL-MYERS SQUIBB COMPANY, priority 2021, published 2025).

For the assay, the target named is T1, human RXFP1 (Homo sapiens, UniProt Q9HBX9).
T1 construct: expressed in transfected cells
T1 sequence (Q9HBX9 1-757): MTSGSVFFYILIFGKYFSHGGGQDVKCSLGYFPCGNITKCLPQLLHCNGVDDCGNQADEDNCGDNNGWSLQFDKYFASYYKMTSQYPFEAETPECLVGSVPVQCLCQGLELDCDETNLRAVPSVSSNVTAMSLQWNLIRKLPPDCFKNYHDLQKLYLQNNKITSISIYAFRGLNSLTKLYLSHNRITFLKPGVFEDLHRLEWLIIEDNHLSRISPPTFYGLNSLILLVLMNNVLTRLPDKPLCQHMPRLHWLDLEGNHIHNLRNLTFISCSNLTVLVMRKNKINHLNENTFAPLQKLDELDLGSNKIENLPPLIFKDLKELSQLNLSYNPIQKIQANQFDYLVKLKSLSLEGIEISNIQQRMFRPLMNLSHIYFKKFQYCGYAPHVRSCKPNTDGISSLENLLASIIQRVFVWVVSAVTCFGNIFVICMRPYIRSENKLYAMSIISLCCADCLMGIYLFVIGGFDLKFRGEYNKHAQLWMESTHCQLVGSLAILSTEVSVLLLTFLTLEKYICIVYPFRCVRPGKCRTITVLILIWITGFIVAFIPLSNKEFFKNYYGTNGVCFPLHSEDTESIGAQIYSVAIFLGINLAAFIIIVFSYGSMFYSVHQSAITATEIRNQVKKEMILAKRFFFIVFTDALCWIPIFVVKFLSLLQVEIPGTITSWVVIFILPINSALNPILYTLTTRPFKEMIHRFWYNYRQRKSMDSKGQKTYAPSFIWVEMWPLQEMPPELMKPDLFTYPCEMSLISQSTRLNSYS
Briefly: RXFP1 cAMP assay (hRXFP1 HEK293 cAMP assay, HTRF). It counts as cell-based. The following applies: HEK293 cells stably expressing human RXFP1, 30 min at room temperature, read-out: cAMP hRXFP1 HEK293 Assay EC50. The essentials: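 hRXFP1-HEK293 stable line; HBSS + Ca/Mg, 20 mM HEPES, 0.05% BSA, 0.5 mM IBMX; cpd 0.010 nM–50 μM, 2% DMSO; 30 min RT; lysis, HTRF cAMP detection; 4-PL fit.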
Background: Changes in cAMP serve as a functional read-out for many G protein-coupled receptors.

By EC50 is commonly meant the concentration at which the effect is half-maximal. Take `CN(C)c1ccc(C2=NOC3COCC23)cc1C(=O)N[C@H]1[C@@H](C(=O)Nc2ccc(F)c(C(F)(F)F)c2)[C@H]2CC[C@@H]1/C2=C\C(F)(F)F` (single isomer, unassigned) [compound 518]: the EC50 was 18.4 nM.
The same measure for `COC(=O)N1Cc2cccc(-c3ccc(OC)c(C(=O)N[C@@H]4C5CCC(/C5=C/C5CC5)[C@@H]4C(=O)Nc4ccc(F)c(C(F)(F)F)c4)c3)c2C1` (some centres unmarked) [compound 881]: 3.1 nM; for `COc1ccc(C2=NOC3COCC23)cc1C(=O)N[C@H]1[C@@H](C(=O)Nc2ccc(F)c(C(F)(F)F)c2)[C@H]2CC[C@@H]1/C2=C\c1csc(C)n1` (some centres unmarked) [compound 806]: 4.9 nM.
Regarding `O=C(N[C@H]1[C@@H](C(=O)Nc2ccc(F)c(C(F)(F)F)c2)[C@H]2CC[C@@H]1/C2=C\C1CC1)c1cccc(C2=NOC3COCC23)c1` (single isomer, unassigned) [compound 647], the EC50 came to 241 nM.
For the molecule `COc1ccc(C2=NOC(C3(O)CCCC3)C2)cc1C(=O)N[C@H]1[C@@H](C(=O)Nc2ccc(F)c(C(F)(F)F)c2)[C@H]2CC[C@@H]1/C2=C\C1CC1` (single isomer, unassigned) [compound 619], the EC50 was determined as 156 nM.
On to `COc1ccc(-c2cccc(CC(F)(F)F)c2)cc1C(=O)N[C@@H]1C2CCC(/C2=C/C2CC2)[C@@H]1C(=O)Nc1ccc(F)c(C(F)(F)F)c1` (some centres unmarked) [compound 287], for which the EC50 was 7 nM.
The result for `COc1cc(F)c(F)cc1C(=O)N[C@@H]1C2CCC(/C2=C/c2ccccc2Cl)[C@@H]1C(=O)Nc1ccc(F)c(C(F)(F)F)c1` (some centres unmarked) [compound 14] reads 220 nM.
With `COc1cc(F)c(F)cc1C(=O)N[C@@H]1C2CCC([C@@H]1C(=O)Nc1ccc(F)c(C(F)(F)F)c1)C21OCCO1` (some centres unmarked) [Example 147], the EC50 came out at 1800 nM.
As to `COc1ccc(C2=NOC3CC(C(N)=O)CC23)cc1C(=O)N[C@H]1[C@@H](C(=O)Nc2ccc(F)c(C(F)(F)F)c2)[C@H]2CC[C@@H]1/C2=C\C(F)(F)F` (single isomer, unassigned) [compound 482], the EC50 worked out at 6.8 nM.
Take `COc1ccc(C2=NOC3COCC23)cc1C(=O)N[C@H]1[C@@H](C(=O)N[C@@H]2CCOc3ccccc32)[C@H]2CC[C@@H]1/C2=C\C1CC1` (some centres unmarked) [compound 645]: the EC50 was 239 nM.
The same measure for `COc1cc(F)c(F)cc1C(=O)N[C@@H]1C2CCC(/C2=C/c2cncnc2)[C@@H]1C(=O)Nc1ccc(F)c(C(F)(F)F)c1` (some centres unmarked) [compound 63]: 510 nM; for `COc1ccccc1CNC(=O)[C@@H]1[C@H](NC(=O)c2cc(C3=NOC4COCC34)ccc2OC)[C@@H]2CC[C@H]1/C2=C/C1CC1` (some centres unmarked) [compound 681]: 606 nM; for `COc1ccc(C2=NO[C@H]3C[C@H](CO)CN23)cc1C(=O)N[C@H]1[C@@H](C(=O)Nc2ccc(F)c(C(F)(F)F)c2)[C@H]2CC[C@@H]1/C2=C\C(C)C` [compound 833]: 3.7 nM.
The same measure for `COc1ccc(-c2ccncc2OC)cc1C(=O)N[C@H]1[C@@H](C(=O)Nc2ccc(F)c(C(F)(F)F)c2)[C@H]2CC[C@@H]1C2=C(C)C` [compound 89]: 330 nM; for `COc1c(F)cc(C2=NOC3CC(CO)CC23)cc1C(=O)N[C@H]1[C@@H](C(=O)N[C@H](C)C2(C)CC2)[C@H]2CC[C@@H]1/C2=C\CC(O)C(F)(F)F` (some centres unmarked) [compound 832]: 3.6 nM; for `COc1ccc(-c2cc(C(OC(=O)NC(C)(C)C)C(F)(F)F)ccc2F)cc1C(=O)N[C@@H]1C2CCC(/C2=C/C2CC2)[C@@H]1C(=O)Nc1ccc(F)c(C(F)(F)F)c1` (some centres unmarked) [compound 210]: 1 nM.
Consider `COc1ccc(-c2cc(C(=O)O)ccc2F)cc1C(=O)N[C@@H]1C2CCC(/C2=C/C2CC2)[C@@H]1C(=O)Oc1cccc(-c2nnnn2C)c1` (some centres unmarked) [compound 272], for which the EC50 turned out to be 3830 nM.
In the case of `COc1ccc(C2=NOC3CC(CF)CC23)cc1C(=O)N[C@H]1[C@@H](C(=O)Nc2ccc(F)c(C(F)(F)F)c2)[C@H]2CC[C@@H]1/C2=C\C1CC1` (some centres unmarked) [compound 866], the EC50 worked out at 4.8 nM.
Turning to `COc1ccc(C2=NO[C@H]3CC(CO)C[C@@H]23)cc1C(=O)N[C@H]1[C@@H](C(=O)Nc2ccc(F)c(C(F)(F)F)c2)[C@H]2CC[C@@H]1/C2=C\CC1CCC1` (some centres unmarked) [compound 837], the EC50 was 4.3 nM.
Regarding `COc1c(F)cc(C2=NOC3COCC23)cc1C(=O)N[C@H]1[C@@H](C(=O)Nc2ccc(F)c(C(F)(F)F)c2)[C@H]2CC[C@@H]1/C2=C\C1CC1` (some centres unmarked) [compound 791], the EC50 came to 0.8 nM.
As for `COc1ccc([C@@H]2CO[C@H]3[C@@H]2OC[C@H]3O)cc1C(=O)N[C@H]1[C@@H](C(=O)Nc2ccc(F)c(C(F)(F)F)c2)[C@H]2CC[C@@H]1/C2=C\C1CC1` [compound 620], the EC50 was determined as 163 nM.
The same measure for `COc1ccc(C2=NOC3CNCC23)cc1C(=O)N[C@H]1[C@@H](C(=O)Nc2ccc(F)c(C(F)(F)F)c2)[C@H]2CC[C@@H]1/C2=C\C1CC1` (stereo partly drawn) [Example 437, (1R,2S,3R,4R,Z)-7-(cyclopropylmethylene)-N-(4-fluoro-3-(trifluoromethyl)phenyl)-3-(2-methoxy-5-(3a,5,6,6a-tetrahydro-4H-pyrrolo[3,4-d]isoxazol-3-yl)benzamido)bicyclo[2.2.1]heptane-2-carboxamide]: 31 nM; for `COc1ncc(-c2ccc(OC)c(C(=O)N[C@@H]3C4CCC(/C4=C/C4CC4)[C@@H]3C(=O)Nc3ccc(F)c(C(F)(F)F)c3)c2)cn1` (some centres unmarked) [compound 279]: 15 nM.
Consider `COc1ccc(C2=NO[C@H]3COC[C@@H]23)cc1C(=O)N[C@H]1[C@@H](C(=O)N[C@H](C)C2(C)CC2)[C@H]2CC[C@@H]1/C2=C\C1CC(F)(F)C1` [compound 842], for which the EC50 was found to be 4.9 nM.
As for `COc1ccc(-c2cc(C(N)=O)ccc2F)cc1C(=O)N[C@@H]1C2CCC(C2=C(C)C)[C@@H]1C(=O)Nc1ccc(F)c(C(F)(F)F)c1` (some centres unmarked) [Example 121], the EC50 turned out to be 16 nM.
Regarding `COc1ccc(C2=NOC3CC(C(O)C(F)(F)F)CC23)cc1C(=O)N[C@H]1[C@@H](C(=O)Nc2ccc(F)c(C(F)(F)F)c2)[C@H]2CC[C@@H]1/C2=C\C1CC1` (single isomer, unassigned) [Example 530], the EC50 is 22.7 nM.
As for `COC(=O)C(NC(C)=O)c1ccc(F)c(-c2ccc(OC)c(C(=O)N[C@@H]3C4CCC(/C4=C/C4CC4)[C@@H]3C(=O)Nc3ccc(F)c(C(F)(F)F)c3)c2)c1` (some centres unmarked) [Example 171], the EC50 worked out at 5 nM.
In the case of `COc1ccc(C2=NOC3CN(C(=O)OC(C)(C)C)CC23)cc1C(=O)N[C@H]1[C@@H](C(=O)Nc2ccc(F)c(C(F)(F)F)c2)[C@H]2CC[C@@H]1/C2=C\C1CC1` (mixture of isomers) [Example 434, tert-butyl 3-(3-(((1R,2R,3S,4R,Z)-7-(cyclopropylmethylene)-3-((4-fluoro-3-(trifluoromethyl)phenyl)carbamoyl)bicyclo[2.2.1]heptan-2-yl)carbamoyl)-4-methoxyphenyl)-3a,4,6,6a-tetrahydro-5H-pyrrolo[3,4-d]isoxazole-5-carboxylate], the EC50 is 24 nM.
In the case of `COc1ccc(-c2cc(C(N[S+]([O-])C(C)(C)C)C(F)(F)F)ccc2F)cc1C(=O)N[C@H]1[C@@H](C(=O)Nc2ccc(F)c(C(F)(F)F)c2)[C@H]2CC[C@@H]1/C2=C\C1CC1` (stereo partly drawn) [Example 256, (1R,2S,3R,4R,Z)-3-(5′-(1-((tert-butylsulfinyl)amino)-2,2,2-trifluoroethyl)-2′-fluoro-4-methoxy-[1,1′-biphenyl]-3-carboxamido)-7-(cyclopropylmethylene)-N-(4-fluoro-3-(trifluoromethyl)phenyl)bicyclo[2.2.1]heptane-2-carboxamide], the EC50 was 14 nM.
`CCC(C)(C)NC(=O)[C@@H]1[C@H](NC(=O)c2cc(C3=NOC4COCC34)ccc2OC)[C@@H]2CC[C@H]1/C2=C/C1CC1` (some centres unmarked) [compound 502]: the EC50 is 11.9 nM.
As to `COc1ccc(-c2cc(C(OC(=O)N3CCC3)C(F)(F)F)ccc2F)cc1C(=O)N[C@@H]1C2CCC(/C2=C/C2CC2)[C@@H]1C(=O)Nc1ccc(F)c(C(F)(F)F)c1` (some centres unmarked) [compound 216], the EC50 amounted to 2 nM.
`COc1ccc(C2=NOC(CO)C2)cc1C(=O)N[C@@H]1C2CCC(/C2=C/C2CCC2)[C@@H]1C(=O)Nc1ccc(F)c(C(F)(F)F)c1` (single isomer, unassigned) [Example 379]: the EC50 amounted to 26 nM.
On to `COc1ccc(C2=NOC3CC(CO)CC23)cc1C(=O)N[C@H]1[C@@H](C(=O)Nc2ccc(F)c(C(F)(F)F)c2)[C@H]2CC[C@@H]1/C2=C\c1cncs1` (some centres unmarked) [compound 803], for which the EC50 was found to be 3.5 nM.
With `COc1ccc(-c2ccc(F)nc2F)cc1C(=O)N[C@H]1[C@@H](C(=O)Nc2ccc(F)c(C(F)(F)F)c2)[C@H]2CC[C@@H]1C2=C(C)C` [compound 106], the EC50 turned out to be 2700 nM.
With `C=C/C=C1\C2CCC1[C@H](C(=O)Nc1ccc(F)c(C(F)(F)F)c1)[C@@H]2NC(=O)c1cc(F)c(F)cc1OC` (some centres unmarked) [compound 44], the EC50 worked out at 26 nM.
